Test results: US20240189287A1, “PERIPHERALLY RESTRICTED CB1 RECEPTOR BLOCKERS AND USES THEREOF” (BIONANOSIM (BNS) LTD, priority 2021, published 2024)
Where two headings read alike, the source gives them in different places.

Columns and labels:
MDR1-MDCKII cells = test: MDR1-MDCK II cell permeation assay (bi-directional permeability, P-gp efflux); assay type: in vitro ADME
Procedure: (§1) Test and reference compounds were diluted with transport buffer (HBSS with 10 mM Hepes, pH 7.4) from stock solution to a concentration of 2 μM (DMSO<1%) and applied to the apical or basolateral side of the cell monolayer. Permeation of the test compounds from A to B direction or B to A direction was determined in duplicate with/without P-gp inhibitor (GF120918, 10 μM). […] The plate was incubated for 2.5 hours in CO2 incubator at 37±1° C., with 5% CO2 at saturated humidity without shaking. In addition, the efflux ratio of each compound was also determined. Test and reference compounds were quantified by LC-MS/MS analysis based on the peak area ratio of analyte/IS.
(§2) The in vitro bi-directional permeability across MDR1-MDCKII cells including P-glycoprotein (Pgp, ABCB1) efflux in the presence and absence of a P-gp inhibitor is an indicator as to the tendency of an orally administered compound to penetrate the brain.

P-gp (MDR1, ABCB1) = test: as above; assay type: in vitro ADME; details: dog, MDCK-MDR1, pH 7.4
Procedure: as §1, §2

C57Bl/6J mice = test: CNS-mediated hyperactivity, locomotor activity (Promethion); assay type: in vivo; details: wild-type male C57Bl/6J mice
Source text: Locomotor activity: Locomotor activity was quantified by the number of disruptions of infrared XYZ beam arrays with a beam spacing of 0.25 cm in the Promethion High-Definition Behavioral Phenotyping System (Sable Instruments, Inc., Las Vegas, NV, USA).
The ability of BNS822 and BNS808 to induce CNS-mediated hyperactivity was further evaluated in a mouse model, using rimonabant (a brain penetrant CB1 receptor blocker) as a positive control. Mice (wild-type male C57Bl/6J) received a single dose of rimonabant (10 mg/kg IP), BNS822 (20 mg/kg PO) BNS 808 (1, 10 mg/kg PO) or vehicle; ambulatory activity was measured by the Promethion Metabolic System (Sable Instruments, Inc). In the same experimental scheme, BNS822, BNS808 and rimonabant were further studied regarding the potential to inhibit the hypomotility-induced by a CB1 receptor agonist, HU210, after a single dose of rimonabant (10 mg/kg IP), BNS822 (20 mg/kg PO) BNS808 (1, 10 mg/kg PO) or vehicle and a single dose of HU210 (30 μg/kg IP) 30 min after.

hERG potassium channels = hERG potassium channels (Homo sapiens (Human), UniProt Q12809); test: hERG assay, automated patch clamp (SyncroPatch 384PE); assay type: cell-based; details: for potential for cardiotoxicity (QT prolongation): acceptance criteria IC50>100* Ki; for IC50: whole cell hERG currents
Sequence of hERG potassium channels (Q12809 whole entry): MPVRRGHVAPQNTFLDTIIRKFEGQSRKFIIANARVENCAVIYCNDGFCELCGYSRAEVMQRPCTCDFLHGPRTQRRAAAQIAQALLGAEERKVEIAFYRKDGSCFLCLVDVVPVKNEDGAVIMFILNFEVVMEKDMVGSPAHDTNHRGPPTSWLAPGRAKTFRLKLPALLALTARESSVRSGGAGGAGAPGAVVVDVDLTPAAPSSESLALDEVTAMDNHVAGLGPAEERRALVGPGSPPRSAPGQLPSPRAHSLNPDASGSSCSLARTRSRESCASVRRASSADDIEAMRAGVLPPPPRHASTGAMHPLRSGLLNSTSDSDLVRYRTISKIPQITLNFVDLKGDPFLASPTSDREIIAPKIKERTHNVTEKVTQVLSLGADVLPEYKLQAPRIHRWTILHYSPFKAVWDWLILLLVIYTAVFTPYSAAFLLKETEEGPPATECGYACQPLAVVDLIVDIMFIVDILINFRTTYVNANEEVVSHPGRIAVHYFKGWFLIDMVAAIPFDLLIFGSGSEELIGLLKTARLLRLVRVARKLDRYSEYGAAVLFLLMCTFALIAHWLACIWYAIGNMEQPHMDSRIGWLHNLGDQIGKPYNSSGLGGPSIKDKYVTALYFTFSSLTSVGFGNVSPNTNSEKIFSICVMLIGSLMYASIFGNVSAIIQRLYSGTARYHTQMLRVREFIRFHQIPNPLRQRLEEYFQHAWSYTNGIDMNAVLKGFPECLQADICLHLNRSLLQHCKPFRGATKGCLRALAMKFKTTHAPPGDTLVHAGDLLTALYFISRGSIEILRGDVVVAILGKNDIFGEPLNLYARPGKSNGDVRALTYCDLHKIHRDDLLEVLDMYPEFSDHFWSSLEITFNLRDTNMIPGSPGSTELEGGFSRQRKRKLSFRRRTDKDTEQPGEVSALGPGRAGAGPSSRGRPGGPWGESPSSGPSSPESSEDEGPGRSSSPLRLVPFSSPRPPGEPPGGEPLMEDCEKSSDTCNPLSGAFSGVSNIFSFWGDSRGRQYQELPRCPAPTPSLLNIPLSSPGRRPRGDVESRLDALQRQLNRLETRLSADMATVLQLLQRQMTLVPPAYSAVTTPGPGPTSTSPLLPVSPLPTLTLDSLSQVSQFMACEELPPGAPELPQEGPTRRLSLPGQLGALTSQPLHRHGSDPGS

CYP3A4 = CYP3A4 (Homo sapiens (Human), UniProt P08684); test: CYP inhibition in human liver microsomes; assay type: in vitro ADME; details: for IC50: fifth value column, read-out: IC50 (μM) CYP 3A4
Sequence of CYP3A4 (P08684 whole entry): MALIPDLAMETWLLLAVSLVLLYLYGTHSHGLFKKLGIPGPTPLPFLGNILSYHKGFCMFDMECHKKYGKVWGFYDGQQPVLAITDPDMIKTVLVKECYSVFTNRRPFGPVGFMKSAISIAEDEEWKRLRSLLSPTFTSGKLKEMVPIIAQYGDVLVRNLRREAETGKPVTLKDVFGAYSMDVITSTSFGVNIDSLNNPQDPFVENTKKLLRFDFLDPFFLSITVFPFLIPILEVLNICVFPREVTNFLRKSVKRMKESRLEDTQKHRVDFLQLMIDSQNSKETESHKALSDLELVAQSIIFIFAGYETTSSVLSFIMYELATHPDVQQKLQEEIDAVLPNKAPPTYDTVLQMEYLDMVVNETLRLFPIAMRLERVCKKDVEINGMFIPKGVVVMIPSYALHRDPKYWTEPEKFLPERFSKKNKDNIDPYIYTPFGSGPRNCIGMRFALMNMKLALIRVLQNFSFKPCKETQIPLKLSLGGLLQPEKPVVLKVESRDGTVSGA
Procedure: (§3) To evaluate the in vitro CYP inhibition of BNS808 and BNS822, the compounds were tested in human liver microsomes that are rich in drug metabolizing enzymes, including CYPs 1A2, 2C9, 2C19, 2D6, 3A4.

CYP 1A2 = CYP 1A2 (Homo sapiens (Human), UniProt P05177); test: CYP inhibition in human liver microsomes; assay type: in vitro ADME
Sequence of CYP 1A2 (P05177 whole entry): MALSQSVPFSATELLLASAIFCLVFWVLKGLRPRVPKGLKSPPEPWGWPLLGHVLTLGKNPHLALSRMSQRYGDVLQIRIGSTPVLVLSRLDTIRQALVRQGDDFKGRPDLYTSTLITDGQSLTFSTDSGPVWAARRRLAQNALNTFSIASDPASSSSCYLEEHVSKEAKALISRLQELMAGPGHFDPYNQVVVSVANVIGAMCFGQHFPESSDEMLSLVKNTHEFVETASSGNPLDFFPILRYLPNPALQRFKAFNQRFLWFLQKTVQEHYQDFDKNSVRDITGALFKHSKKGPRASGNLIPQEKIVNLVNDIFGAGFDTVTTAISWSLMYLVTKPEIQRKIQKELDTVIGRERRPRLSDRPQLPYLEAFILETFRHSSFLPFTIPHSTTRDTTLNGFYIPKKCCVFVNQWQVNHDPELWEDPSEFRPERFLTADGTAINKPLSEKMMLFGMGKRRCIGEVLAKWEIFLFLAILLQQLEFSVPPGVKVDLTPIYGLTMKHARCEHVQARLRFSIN
Procedure: as §3

CYP2C9 = CYP2C9 (Homo sapiens (Human), UniProt P11712); test: CYP inhibition in human liver microsomes; assay type: in vitro ADME
Sequence of CYP2C9 (P11712 whole entry): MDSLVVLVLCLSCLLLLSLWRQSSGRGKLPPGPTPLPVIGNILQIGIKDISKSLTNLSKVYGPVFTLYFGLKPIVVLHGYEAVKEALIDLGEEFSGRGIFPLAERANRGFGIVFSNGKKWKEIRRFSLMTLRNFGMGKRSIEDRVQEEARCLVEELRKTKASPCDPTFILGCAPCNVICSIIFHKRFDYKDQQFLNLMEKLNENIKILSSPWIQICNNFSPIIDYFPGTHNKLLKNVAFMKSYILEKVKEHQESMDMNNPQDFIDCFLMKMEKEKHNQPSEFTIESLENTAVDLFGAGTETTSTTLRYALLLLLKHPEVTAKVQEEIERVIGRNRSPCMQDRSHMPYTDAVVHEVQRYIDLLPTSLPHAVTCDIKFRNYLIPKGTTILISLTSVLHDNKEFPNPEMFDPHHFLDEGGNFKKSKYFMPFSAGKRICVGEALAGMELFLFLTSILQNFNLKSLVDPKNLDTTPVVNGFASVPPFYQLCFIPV
Procedure: as §3

CYP 2D6 = CYP 2D6 (Homo sapiens (Human), UniProt P10635); test: CYP inhibition in human liver microsomes; assay type: in vitro ADME
Sequence of CYP 2D6 (P10635 whole entry): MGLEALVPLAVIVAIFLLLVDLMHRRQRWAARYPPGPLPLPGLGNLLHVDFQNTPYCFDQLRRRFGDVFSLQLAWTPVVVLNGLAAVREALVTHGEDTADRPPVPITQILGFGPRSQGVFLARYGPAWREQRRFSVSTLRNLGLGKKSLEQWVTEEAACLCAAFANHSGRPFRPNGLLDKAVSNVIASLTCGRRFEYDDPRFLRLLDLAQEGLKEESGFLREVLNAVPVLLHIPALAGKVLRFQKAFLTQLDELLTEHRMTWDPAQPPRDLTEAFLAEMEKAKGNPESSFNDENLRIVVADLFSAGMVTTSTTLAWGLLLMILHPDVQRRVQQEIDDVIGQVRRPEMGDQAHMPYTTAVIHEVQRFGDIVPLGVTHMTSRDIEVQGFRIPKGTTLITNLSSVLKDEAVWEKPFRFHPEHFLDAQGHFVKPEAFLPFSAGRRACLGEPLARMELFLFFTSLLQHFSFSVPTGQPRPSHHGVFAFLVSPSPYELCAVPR
Procedure: as §3

CYP2C19 = CYP2C19 (Homo sapiens (Human), UniProt P33261); test: CYP inhibition in human liver microsomes; assay type: in vitro ADME
Sequence of CYP2C19 (P33261 whole entry): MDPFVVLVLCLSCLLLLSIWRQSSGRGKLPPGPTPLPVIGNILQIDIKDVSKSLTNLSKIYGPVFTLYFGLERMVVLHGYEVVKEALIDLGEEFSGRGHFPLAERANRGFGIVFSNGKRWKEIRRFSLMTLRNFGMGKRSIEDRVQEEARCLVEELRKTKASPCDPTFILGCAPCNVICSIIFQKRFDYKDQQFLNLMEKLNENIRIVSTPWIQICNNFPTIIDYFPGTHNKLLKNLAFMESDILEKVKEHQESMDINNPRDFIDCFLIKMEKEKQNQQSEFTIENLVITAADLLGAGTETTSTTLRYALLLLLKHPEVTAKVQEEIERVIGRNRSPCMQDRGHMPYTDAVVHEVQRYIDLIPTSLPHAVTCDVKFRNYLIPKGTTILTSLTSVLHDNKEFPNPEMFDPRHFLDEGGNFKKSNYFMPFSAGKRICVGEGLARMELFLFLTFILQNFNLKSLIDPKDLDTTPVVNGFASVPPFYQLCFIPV
Procedure: as §3

CB2 receptor = CB2 receptor (Homo sapiens (Human), UniProt P34972); test: CB2 receptor radioligand binding assay, [3H]CP-55,940 displacement, human kidney membranes
Sequence of CB2 receptor (P34972 whole entry): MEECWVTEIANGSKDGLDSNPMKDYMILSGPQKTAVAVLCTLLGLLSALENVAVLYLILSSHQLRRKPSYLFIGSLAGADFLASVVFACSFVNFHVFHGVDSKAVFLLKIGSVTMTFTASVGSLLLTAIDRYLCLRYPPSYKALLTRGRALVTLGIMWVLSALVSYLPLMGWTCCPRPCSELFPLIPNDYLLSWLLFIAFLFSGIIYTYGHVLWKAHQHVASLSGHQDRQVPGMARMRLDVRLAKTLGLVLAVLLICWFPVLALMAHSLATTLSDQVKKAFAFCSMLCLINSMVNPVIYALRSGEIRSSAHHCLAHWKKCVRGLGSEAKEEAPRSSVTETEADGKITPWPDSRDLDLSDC
Procedure: Radioligand binding assays: Binding affinity was determined by a radioligand binding assay. The different BB8-conjugates binding to CB1 and CB2 receptors was assessed in competition displacement assays using [^3H]CP-55.940 as the radioligand and crude membranes from mouse brain for CB1 receptor and human kidney cells for CB2 receptor.
CB2 receptor binding assay: Human kidney membranes were used as the source material for CB2 receptors. The displacement of specifically bound tritiated CP-55,940 from these membranes using a standard filtration assay was used to determine the Ki values for the test compounds. Briefly, 1.25 μg of protein was incubated for 1.5 h at 30° C. in the presence of 0.5 nM [^3H]CP-55,940 and various concentrations (10^−5M-10^−11M) of test compound/control, final volume of 1 mL. The incubation was terminated by rapid filtration and washing, and the amount of specifically bound [^3H]CP-55,940 was determined. Briefly, membranes with bound [^3H]CP-55,940 were separated and washed from free ligand by vacuum filtration, adsorbing the membrane onto a Whatman glass microfiber filter paper ([…], Cat #1821271). Finally, the Whatman filter paper with adsorbed membranes was cut and placed in scintillation liquid (Ultima Gold) for 1 h at 25° C. followed by a β counter reading of bound [^3H]CP-55,940 radioligand. All data were in triplicates with Ki values determined using GraphPad Prism 7.02 analysis software.

CB1 receptor = CB1 receptor (Mus musculus (Mouse), UniProt P47746); test: [35S]GTPγS binding assay for CB1 receptor, mouse brain membranes; assay type: biochemical; details: nature of binding: agonist/antagonist/inverse agonist
Sequence of CB1 receptor (P47746 whole entry): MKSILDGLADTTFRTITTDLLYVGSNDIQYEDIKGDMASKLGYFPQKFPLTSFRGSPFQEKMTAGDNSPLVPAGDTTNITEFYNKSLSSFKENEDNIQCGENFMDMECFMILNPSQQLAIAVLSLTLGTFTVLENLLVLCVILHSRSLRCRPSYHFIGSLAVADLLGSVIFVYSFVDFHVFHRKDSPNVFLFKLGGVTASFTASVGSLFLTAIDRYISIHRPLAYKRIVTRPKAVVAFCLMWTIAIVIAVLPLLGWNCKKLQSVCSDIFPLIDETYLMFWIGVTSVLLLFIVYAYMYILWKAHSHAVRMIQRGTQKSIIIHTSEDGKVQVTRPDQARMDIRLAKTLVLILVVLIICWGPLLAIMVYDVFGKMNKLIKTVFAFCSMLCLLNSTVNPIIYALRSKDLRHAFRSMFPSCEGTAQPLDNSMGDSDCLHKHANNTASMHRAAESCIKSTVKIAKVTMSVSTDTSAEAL
Procedure: For CB1 receptor-mouse brains were dissected and P2 membranes prepared and resuspended at ˜2 μg protein/μL in 1 ml assay buffer (50 mM Tris HCl, 9 mM MgCl2, 0.2 mM EDTA, 150 mM NaCl; pH 7.4). Ligand-stimulated [^35S]GTPγS binding was assayed as described previously (Tam et al., JCI 2010). Briefly, membranes (10 μg protein) were incubated in assay buffer containing 100 μM GDP, 0.05 nM [^35S]GTPγS, test compounds at various concentrations (CP55940/Rimonabant as controls and test compounds for BB8 conjugates), and 1.4 mg/mL fatty acid-free BSA in siliconized glass tubes. Membranes with bound ligand ([^35S]GTPγS) were separated from free ligand by vacuum filtration and were analyzed using β counter as described above. Non-specific binding was determined using 10 μM GTPS (cold GTP). Basal binding was assayed in the absence of the tested compound and in the presence of GDP.

In the case of `O=S(=O)(NC1CCCOc2c1nn(-c1ccccc1Cl)c2-c1ccc(Cl)cc1)c1ccc(Cl)cc1` (stereo not drawn) [BNS808, 4-chloro-N-[2-(2-chlorophenyl)-3-(4-chlorophenyl)-5,6,7,8-tetrahydrooxepino[3,2-c]pyrazol-8-yl]benzenesulfonamide], the “Rank Papp” value (MDR1-MDCKII cells; MDCK-MDR1) is reported as “Low”, the “MDR1 B:A/A:B” value (MDR1-MDCKII cells; efflux ratio, without P-gp inhibitor) is reported as 3.95 and the efflux ratio at 2.5 h, 2 μM (P-gp (MDR1, ABCB1); efflux ratio in the presence of P-gp inhibitor GF120918, read-out: MDR1 B:A/A:B (+P-gp inhibitor)) is reported as 1.88. For the same compound, the “locomotor activity (CNS-mediated hyperactivity)” value (C57Bl/6J mice; single dose 1, 10 mg/kg PO) was “no locomotor effects”, the Hill slope (hERG potassium channels) was 0.89 and the “potential for cardiotoxicity (QT prolongation)” value (hERG potassium channels) was “low”. The IC50 (hERG potassium channels) was 5.39 µM, the “inhibitor grade, CYP3A4(M)” value (CYP3A4) was “moderate inhibitor” and the IC50 (CYP3A4) was 2.99 µM. For the same compound, the IC50 (CYP 1A2) was > 50 µM, the IC50 (CYP2C9) was 8.33 µM and the “inhibitor grade, CYP2C9” value (CYP2C9; human liver microsomes) was “weak-moderate inhibitor”. For the same compound, the IC50 (CYP 2D6) was > 50 µM, the IC50 (CYP2C19) was 18 µM and the “inhibitor grade, CYP2C19” value (CYP2C19; human liver microsomes) was “weak-moderate inhibitor”.
In the case of `Cc1ccc(C)c(OCCCC(C)(C)C(=O)NC2CCCOc3c2nn(-c2ccccc2Cl)c3-c2ccc(Cl)cc2)c1` (stereo not drawn) [BNS822, N-[2-(2-chlorophenyl)-3-(4-chlorophenyl)-5,6,7,8-tetrahydrooxepino[3,2-c]pyrazol-8-yl]-5-(2,5-dimethylphenoxy)-2,2-dimethyl-pentanamide], the “hCB2R Ki (nM)” value (CB2 receptor) is reported as “No binding”, the “mCB1R GTPγ[^35S] (activity)” value (CB1 receptor) is reported as “Antagonist” and the P-gp substrate (MDR1-MDCKII cells) is reported as “P-gp substrates and Yes”. The “Rank Papp” value (MDR1-MDCKII cells) was “Low”, the Papp at 2.5 h, 2 μM (P-gp (MDR1, ABCB1); 2 μM, A to B, 2.5 hours) was < 0.02 ×10⁻⁶ cm/s and the efflux ratio at 2.5 h, 2 μM (P-gp (MDR1, ABCB1); efflux ratio, without P-gp inhibitor, read-out: MDR1 B:A/A:B) was > 3.62. For the same compound, the “locomotor activity (CNS-mediated hyperactivity)” value (C57Bl/6J mice; single dose 20 mg/kg PO) was “no locomotor effects”, the “potential for cardiotoxicity (QT prolongation)” value (hERG potassium channels) was “low” and the IC50 (hERG potassium channels) was > 30 µM. For the same compound, the IC50 (CYP3A4) was > 50 µM, the IC50 (CYP 1A2; human liver microsomes, isozyme order of b227, read-out: IC50 (μM) CYP 1A2) was > 50 µM and the “inhibitor grade, CYP2C9” value (CYP2C9; human liver microsomes) was “weak-moderate inhibitor”. For the same compound, the IC50 (CYP2C9; human liver microsomes, read-out: IC50 (μM) CYP 2C9) was 8.52 µM, the IC50 (CYP 2D6; human liver microsomes, read-out: IC50 (μM) CYP 2D6) was > 50 µM and the IC50 (CYP2C19; human liver microsomes, read-out: IC50 (μM) CYP 2C19) was > 50 µM.
